Reference: PMC6663621 (Cancer, 2019)
“And” between values parts separate entries of the source, which are not always exact repeats. Equal entries are not always repeated. Where two headings read alike, the source gives them in different places.

Key:
[1] = clinical; settings: human, plasma
[2] = plasma, Cohort 1, CC-486 dose 200 mg oral, Cycle 1 Day 1, actual values (n=2)
[3] = plasma, Cohorts 2 and 3, CC-486 dose 300 mg oral, Cycle 1 Day 1, mean ± SD

For `C/C=C1\NC(=O)[C@H]2CSSCC/C=C/[C@H](CC(=O)N[C@H](C(C)C)C(=O)N2)OC(=O)[C@H](C(C)C)NC1=O` [romidepsin], the Cmax ([1]; iv, 8 mg/m2) was 455 ± 255 ng/mL, the Tmax ([1]; iv, 8 mg/m2) was 4 h and the clearance ([1]; iv, 8 mg/m2) was 178 mL/min.
In the case of `Nc1ncn([C@@H]2O[C@H](CO)[C@@H](O)[C@H]2O)c(=O)n1` [5-azacitidine], the “difference in dose-normalized exposure, apparent clearance, apparent volume of distribution or half-life” value (200 or 300 mg CC-486) is reported as “no difference”, the AUCINF [2] is reported as 538 ng·h/mL and the Cl/F [2] is reported as 372 L/h and 373 L/h. For the same compound, the V/F [2] was 293 L and 319 L, the t1/2 [2] was 0.59 h and the Cl/F [3] was 922 ± 892 (10) L/h. The V/F [3] was 731 ± 557 (10) L, the Tmax ([1]; oral) was roughly 1 h and the Cmax ([1]; po, 200 mg) was 324 ± 157 ng/mL. It also gave a Tmax ([1]; po, 200 mg) of 1 h, a Cmax ([1]; po, 300 mg) of 226 ± 130 ng/mL and a Tmax ([1]; po, 300 mg) of 1.08 h.
